{
  "source": "paper PMC8368196",
  "about": "“Phase 1 study of the ATR inhibitor berzosertib (formerly M6620, VX-970) combined with gemcitabine ± cisplatin in patients with advanced solid tumours” (British Journal of Cancer, 2021)",
  "key": {"[1]": {"experiment": "Berzosertib plasma and urine pharmacokinetics (LC-MS/MS, non-compartmental analysis)", "assay_type": "in vivo, human", "conditions": "for AUC(0-inf) / Cmax / clearance / Vd / half-life: iv, plasma; for Vd: read-out: Vss", "experimental": "PK assessments for berzosertib were conducted during the monotherapy lead-in and during cycles 1 and 2. Blood samples for berzosertib plasma PK assessments were collected following the single-agent dose, from day 1 of combination dosing (pre-dose, 0.5 h before the end of infusion, at end of infusion and 0.5, 1, 2, 3, 7, 23, 47 and 71 h after the end of infusion), on day 9 (pre-dose) and cycle 2 day 2 (pre-dose and 2 h after the end of infusion). Cumulative urine samples were collected for PK assessments on days 2 and 3 of cycle 1 (pre-dose—3, 3–7, 7–11 and 11–23 h). Berzosertib concentrations were quantified using a validated liquid chromatography tandem-mass spectrometry method and plasma PK was characterised by non-compartmental analyses using Phoenix WinNonlin 6.4 (Certara USA Inc, Princeton, NJ, USA).\nSafety data, baseline patient demographics and disease characteristics were summarised descriptively for the combination safety set—which included all enrolled patients who received at least one dose of study drug. PK data were collected in the PK analysis set, defined as all enrolled patients who received at least one dose of berzosertib and provided at least one measurable post-dose sample. […] Standard non-compartmental methods were used to determine PK parameters."}, "ATR": {"system": "ATR", "parameters": "method as in PMID 23222511, PMID 25010037", "conditions": "inhibitor of ATR; cited from earlier work"}, "[2]": {"system": "patients with advanced solid tumours", "text": "Part A was a 3 + 3 dose-escalation Phase 1 study evaluating the safety, tolerability, pharmacokinetics (PK) and preliminary efficacy of berzosertib in combination with gemcitabine with or without cisplatin (NCT02157792) (Fig. 1). Patients were enrolled in cohorts of three, with subsequent cohort expansion and dose-escalation decisions based on safety review, available PK data and observations of dose-limiting toxicities (DLTs) until the end of treatment cycle 1.\nA 7–14-day lead-in period with single ascending doses of intravenous (i.v.) berzosertib was planned to assess the safety of berzosertib monotherapy; the requirement for the lead-in period was removed after review of safety data both during the study and from a concurrent study of berzosertib monotherapy.[17] […] Based on preclinical studies, a starting dose of 18 mg/m^2 and a dosing regimen of i.v. berzosertib on days 2 and 9, ~24 ± 4 h after dosing with gemcitabine ± cisplatin, was selected.[17] […] Patients received i.v. gemcitabine on days 1 and 8, with or without i.v. cisplatin on day 1. […]\nTreatment-emergent adverse events (TEAEs) and DLTs were reported using National Cancer Institute (NCI) Common Terminology Criteria for Adverse Events (CTCAE) version 4.0. […] All AEs of any grade were recorded and followed up until resolution. Safety was evaluated throughout treatment and was used to inform dose-escalation decisions. […]"}, "[3]": {"conditions": "human, 18 mg/m2, berzosertib 18 mg/m^2 i.v., lead-in period, berzosertib alone, mean (% CV), n = 3"}, "[4]": {"conditions": "human, 36 mg/m2, berzosertib 36 mg/m^2 i.v., lead-in period, berzosertib alone, mean (% CV), n = 3"}, "[5]": {"conditions": "human, 60 mg/m2, berzosertib 60 mg/m^2 i.v., lead-in period, berzosertib alone, mean (% CV), n = 4"}, "[6]": {"conditions": "human, 72 mg/m2, berzosertib 72 mg/m^2 i.v., lead-in period, berzosertib alone, mean (% CV), n = 7"}, "[7]": {"conditions": "human, 90 mg/m2, berzosertib 90 mg/m^2 i.v., lead-in period, berzosertib alone, mean (% CV), n = 6"}, "[8]": {"conditions": "human, 140 mg/m2, berzosertib 140 mg/m^2 i.v., lead-in period, berzosertib alone, mean (% CV), n = 5"}, "[9]": {"conditions": "human, 210 mg/m2, berzosertib 210 mg/m^2 i.v., lead-in period, berzosertib alone, mean (% CV), n = 2"}},
  "note": "Read-outs that look alike come from different tables or passages of the source.",
  "data": [
    {"smiles": "CNCc1ccc(-c2cc(-c3nc(-c4ccc(S(=O)(=O)C(C)C)cc4)cnc3N)on2)cc1", "note": "[Berzosertib]", "values": [
      {"measurement": "Dose proportionality of exposure", "setting": "[1]; from 18 to 210 mg/m^2", "value": "approximately dose-proportional"},
      {"measurement": "CL renal", "setting": "[1]; human, intravenous, part A, urine, read-out: Mean renal clearance (converted)", "value": 60, "unit": "mL/min"},
      {"measurement": "AUC(0-inf)", "setting": "[1]; [3]", "value": 0.351, "unit": "µg·h/mL"},
      {"measurement": "Cmax", "setting": "[1]; [3]", "value": 0.072, "unit": "µg/mL"},
      {"measurement": "clearance", "setting": "[1]; [3]", "value": 1640, "unit": "mL/min"},
      {"measurement": "Vd", "setting": "[1]; [3]", "value": 1600, "unit": "L"},
      {"measurement": "half-life", "setting": "[1]; human, 18 mg/m2, berzosertib 18 mg/m^2 i.v., lead-in period, berzosertib alone, mean (% CV), n = 3, read-out: t½ (converted)", "value": 14, "unit": "h"},
      {"measurement": "AUC(0-inf)", "setting": "[1]; [4]", "value": 0.913, "unit": "µg·h/mL"},
      {"measurement": "Cmax", "setting": "[1]; [4]", "value": 0.176, "unit": "µg/mL"},
      {"measurement": "clearance", "setting": "[1]; [4]", "value": 1500, "unit": "mL/min"},
      {"measurement": "Vd", "setting": "[1]; [4]", "value": 1280, "unit": "L"},
      {"measurement": "half-life", "setting": "[1]; human, 36 mg/m2, berzosertib 36 mg/m^2 i.v., lead-in period, berzosertib alone, mean (% CV), n = 3, read-out: t½ (converted)", "value": 14.2, "unit": "h"},
      {"measurement": "AUC(0-inf)", "setting": "[1]; [5]", "value": 1.7, "unit": "µg·h/mL"},
      {"measurement": "Cmax", "setting": "[1]; [5]", "value": 0.345, "unit": "µg/mL"},
      {"measurement": "clearance", "setting": "[1]; [5]", "value": 1300, "unit": "mL/min"},
      {"measurement": "Vd", "setting": "[1]; [5]", "value": 1280, "unit": "L"},
      {"measurement": "half-life", "setting": "[1]; human, 60 mg/m2, berzosertib 60 mg/m^2 i.v., lead-in period, berzosertib alone, mean (% CV), n = 4, read-out: t½ (converted)", "value": 15, "unit": "h"},
      {"measurement": "AUC(0-inf)", "setting": "[1]; [6]", "value": 2.28, "unit": "µg·h/mL"},
      {"measurement": "Cmax", "setting": "[1]; [6]", "value": 0.536, "unit": "µg/mL"},
      {"measurement": "clearance", "setting": "[1]; [6]", "value": 1040, "unit": "mL/min"},
      {"measurement": "Vd", "setting": "[1]; [6]", "value": 1040, "unit": "L"},
      {"measurement": "half-life", "setting": "[1]; human, 72 mg/m2, berzosertib 72 mg/m^2 i.v., lead-in period, berzosertib alone, mean (% CV), n = 7, read-out: t½ (converted)", "value": 15.2, "unit": "h"},
      {"measurement": "AUC(0-inf)", "setting": "[1]; [7]", "value": 2.37, "unit": "µg·h/mL"},
      {"measurement": "Cmax", "setting": "[1]; [7]", "value": 0.451, "unit": "µg/mL"},
      {"measurement": "clearance", "setting": "[1]; [7]", "value": 1240, "unit": "mL/min"},
      {"measurement": "Vd", "setting": "[1]; [7]", "value": 1320, "unit": "L"},
      {"measurement": "half-life", "setting": "[1]; human, 90 mg/m2, berzosertib 90 mg/m^2 i.v., lead-in period, berzosertib alone, mean (% CV), n = 6, read-out: t½ (converted)", "value": 17.2, "unit": "h"},
      {"measurement": "AUC(0-inf)", "setting": "[1]; [8]", "value": 4.55, "unit": "µg·h/mL"},
      {"measurement": "Cmax", "setting": "[1]; [8]", "value": 0.817, "unit": "µg/mL"},
      {"measurement": "clearance", "setting": "[1]; [8]", "value": 1010, "unit": "mL/min"},
      {"measurement": "Vd", "setting": "[1]; [8]", "value": 1150, "unit": "L"},
      {"measurement": "half-life", "setting": "[1]; human, 140 mg/m2, berzosertib 140 mg/m^2 i.v., lead-in period, berzosertib alone, mean (% CV), n = 5, read-out: t½ (converted)", "value": 17, "unit": "h"},
      {"measurement": "AUC(0-inf)", "setting": "[1]; [9]", "value": 6.13, "unit": "µg·h/mL"},
      {"measurement": "Cmax", "setting": "[1]; [9]", "value": 0.808, "unit": "µg/mL"},
      {"measurement": "clearance", "setting": "[1]; [9]", "value": 1270, "unit": "mL/min"},
      {"measurement": "Vd", "setting": "[1]; [9]", "value": 1550, "unit": "L"},
      {"measurement": "half-life", "setting": "[1]; human, 210 mg/m2, berzosertib 210 mg/m^2 i.v., lead-in period, berzosertib alone, mean (% CV), n = 2, read-out: t½ (converted)", "value": 16.8, "unit": "h"},
      {"measurement": "half-life", "setting": "[1]; human, i.v., 18–210 mg/m^2, read-out: Apparent terminal half-life (converted)", "value": "~17", "unit": "h"},
      {"measurement": "PK when administered ~24 h after gemcitabine, with or without cisplatin, versus berzosertib alone", "setting": "[1]; in vivo", "value": "not significantly different"},
      {"measurement": "Mean percentage excreted in the urine", "setting": "[1]; part A", "value": 5, "unit": "%"},
      {"measurement": "Accumulation", "setting": "[1]; weekly administration", "value": "not observed"},
      {"measurement": "IC50", "setting": "ATR", "value": 0.019, "unit": "µM"},
      {"measurement": "Trends in laboratory results (serum chemistry, haematology, urinalysis), vital signs or ECG parameters attributable to treatment", "setting": "[2]; in vivo", "value": "no clinically meaningful trends"},
      {"measurement": "Patients with acute hypersensitivity", "setting": "[2]; on second infusion of berzosertib, no clear relationship to dose", "value": "< 5", "unit": "%"}
    ]}
  ]
}
